Test results: the supplement of paper PMC10733146

What was measured:
Assay in all cases: viability relative to DMSO control (fraction); higher = less drug effect (more viable cells)
Conditions in all cases: 48 h
[1] = system: primary AML patient cells (S091)
In short: (§1)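 Compounds were pre-plated at five concentrations, one well each, in 384-well plates, and primary mononuclear tumour cells were plated on them at 4 × 10^4 cells per well. The cells, fresh or cryopreserved, had been Ficoll-isolated from blood or bone marrow or taken from processed lymph node. After 48 h at 37 °C and 5% CO2 in RPMI-1640 with penicillin/streptomycin, L-glutamine and human serum, viability was read as CellTiter-Glo luminescence relative to the median of 16 inner DMSO wells.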

[2] = system: primary AML patient cells (S019)
In short: as §1

[3] = system: primary FL patient cells (S087)
In short: as §1

[4] = system: primary AML patient cells (S072)
In short: as §1

[5] = system: primary B-PLL patient cells (S016)
In short: as §1

[6] = system: primary AML patient cells (S089)
In short: as §1

[7] = system: primary AML patient cells (S002)
In short: as §1

[8] = system: primary FL patient cells (S022)
In short: as §1

[9] = system: primary AML patient cells (S009)
In short: as §1

[10] = system: primary AML patient cells (S017)
In short: as §1

[11] = system: primary AML patient cells (S071)
In short: as §1

[12] = system: primary AML patient cells (S079)
In short: as §1

[13] = system: primary AML patient cells (S055)
In short: as §1

[14] = system: primary MCL patient cells (S053)
In short: as §1

[15] = system: primary ALL patient cells (S048)
In short: as §1

[16] = system: primary DLBCL patient cells (S082)
In short: as §1

[17] = system: primary ALL patient cells (S088)
In short: as §1

[18] = system: primary AML patient cells (S060)
In short: as §1

[19] = system: primary AML patient cells (S021)
In short: as §1

[20] = system: primary AML patient cells (S025)
In short: as §1

`O=C(Nc1nc2ccccc2n1CCN1CCOCC1)c1cccc([N+](=O)[O-])c1` [IRAK-1/4 INHIBITOR I] was tested, and the viability ([1]; 0.016 µM) was 0.911, the viability ([1]; 0.08 µM) was 0.936 and the viability ([1]; 0.4 µM) was 0.951. For the same compound, the viability ([1]; 2 µM) was 0.905, the viability ([1]; 10 µM) was 0.798 and the viability ([2]; 0.016 µM) was 0.915. It also gave a viability ([2]; 0.08 µM) of 1.04, a viability ([2]; 0.4 µM) of 0.913 and a viability ([2]; 2 µM) of 0.867. It also gave a viability ([2]; 10 µM) of 0.909, a viability ([3]; 0.016 µM) of 0.933 and a viability ([3]; 0.08 µM) of 1.02. The viability ([3]; 0.4 µM) was 0.989, the viability ([3]; 2 µM) was 0.994 and the viability ([3]; 10 µM) was 1.08. It also gave a viability ([4]; 0.016 µM) of 0.921, a viability ([4]; 0.08 µM) of 0.985 and a viability ([4]; 0.4 µM) of 0.909. The viability ([4]; 2 µM) was 0.869, the viability ([4]; 10 µM) was 0.916 and the viability ([5]; 0.016 µM) was 0.968. The viability ([5]; 0.08 µM) was 1.05, the viability ([5]; 0.4 µM) was 0.969 and the viability ([5]; 2 µM) was 0.937. For the same compound, the viability ([5]; 10 µM) was 1.04, the viability ([6]; 0.016 µM) was 0.772 and the viability ([6]; 0.08 µM) was 0.973. The viability ([6]; 0.4 µM) was 0.849, the viability ([6]; 2 µM) was 1 and the viability ([6]; 10 µM) was 0.872. The viability ([7]; 0.016 µM) was 0.955, the viability ([7]; 0.08 µM) was 1.05 and the viability ([7]; 0.4 µM) was 0.901. For the same compound, the viability ([7]; 2 µM) was 0.953, the viability ([7]; 10 µM) was 1.03 and the viability ([8]; 0.016 µM) was 0.887. For the same compound, the viability ([8]; 0.08 µM) was 0.974, the viability ([8]; 0.4 µM) was 0.885 and the viability ([8]; 2 µM) was 0.915. It also gave a viability ([8]; 10 µM) of 0.913, a viability ([9]; 0.016 µM) of 1.01 and a viability ([9]; 0.08 µM) of 0.993. For the same compound, the viability ([9]; 0.4 µM) was 0.965, the viability ([9]; 2 µM) was 0.933 and the viability ([9]; 10 µM) was 0.98. The viability ([10]; 0.016 µM) was 0.904, the viability ([10]; 0.08 µM) was 0.962 and the viability ([10]; 0.4 µM) was 0.889. It also gave a viability ([10]; 2 µM) of 0.932, a viability ([10]; 10 µM) of 0.937 and a viability ([11]; 0.016 µM) of 0.925. It also gave a viability ([11]; 0.08 µM) of 0.918, a viability ([11]; 0.4 µM) of 0.815 and a viability ([11]; 2 µM) of 0.783. For the same compound, the viability ([11]; 10 µM) was 0.636, the viability ([12]; 0.016 µM) was 0.929 and the viability ([12]; 0.08 µM) was 0.93. It also gave a viability ([12]; 0.4 µM) of 0.885, a viability ([12]; 2 µM) of 0.906 and a viability ([12]; 10 µM) of 0.949. It also gave a viability ([13]; 0.016 µM) of 0.985, a viability ([13]; 0.08 µM) of 0.994 and a viability ([13]; 0.4 µM) of 1.01. The viability ([13]; 2 µM) was 1.02, the viability ([13]; 10 µM) was 0.958 and the viability ([14]; 0.016 µM) was 0.823. The viability ([14]; 0.08 µM) was 0.939, the viability ([14]; 0.4 µM) was 0.915 and the viability ([14]; 2 µM) was 0.977. It also gave a viability ([14]; 10 µM) of 1.09, a viability ([15]; 0.016 µM) of 0.726 and a viability ([15]; 0.08 µM) of 0.836. The viability ([15]; 0.4 µM) was 0.811, the viability ([15]; 2 µM) was 0.834 and the viability ([15]; 10 µM) was 0.808. For the same compound, the viability ([16]; 0.016 µM) was 0.863, the viability ([16]; 0.08 µM) was 0.932 and the viability ([16]; 0.4 µM) was 0.926. It also gave a viability ([16]; 2 µM) of 1.02, a viability ([16]; 10 µM) of 1.07 and a viability ([17]; 0.016 µM) of 0.747. For the same compound, the viability ([17]; 0.08 µM) was 0.862, the viability ([17]; 0.4 µM) was 0.856 and the viability ([17]; 2 µM) was 0.826. The viability ([17]; 10 µM) was 0.941, the viability ([18]; 0.016 µM) was 0.973 and the viability ([18]; 0.08 µM) was 1. The viability ([18]; 0.4 µM) was 0.974, the viability ([18]; 2 µM) was 1 and the viability ([18]; 10 µM) was 1.02. The viability ([19]; 0.016 µM) was 0.924, the viability ([19]; 0.08 µM) was 0.954 and the viability ([19]; 0.4 µM) was 0.907. For the same compound, the viability ([19]; 2 µM) was 0.735 and the viability ([19]; 10 µM) was 0.819.

For `O=C(O)CSc1cc(NS(=O)(=O)c2ccc(Br)cc2)c2ccccc2c1O` [UMI-77], the viability ([1]; 0.024 µM) was 1.02, the viability ([1]; 0.12 µM) was 1.03 and the viability ([1]; 0.6 µM) was 1.13. The viability ([1]; 3 µM) was 1.32, the viability ([1]; 15 µM) was 0.996 and the viability ([2]; 0.024 µM) was 1.28. The viability ([2]; 0.12 µM) was 1.35, the viability ([2]; 0.6 µM) was 1.17 and the viability ([2]; 3 µM) was 1.24. It also gave a viability ([2]; 15 µM) of 0.831, a viability ([3]; 0.024 µM) of 0.936 and a viability ([3]; 0.12 µM) of 0.937. For the same compound, the viability ([3]; 0.6 µM) was 0.923, the viability ([3]; 3 µM) was 0.876 and the viability ([3]; 15 µM) was 0.256. It also gave a viability ([4]; 0.024 µM) of 0.956, a viability ([4]; 0.12 µM) of 0.949 and a viability ([4]; 0.6 µM) of 0.94. For the same compound, the viability ([4]; 3 µM) was 0.994, the viability ([4]; 15 µM) was 0.777 and the viability ([20]; 0.024 µM) was 1.06. The viability ([20]; 0.12 µM) was 1.08, the viability ([20]; 0.6 µM) was 1.03 and the viability ([20]; 3 µM) was 1.18. The viability ([20]; 15 µM) was 0.46, the viability ([5]; 0.024 µM) was 1.11 and the viability ([5]; 0.12 µM) was 1.11. For the same compound, the viability ([5]; 0.6 µM) was 0.994, the viability ([5]; 3 µM) was 1.07 and the viability ([5]; 15 µM) was 0.778. The viability ([6]; 0.024 µM) was 0.835, the viability ([6]; 0.12 µM) was 0.672 and the viability ([6]; 0.6 µM) was 0.737. For the same compound, the viability ([6]; 3 µM) was 1.03, the viability ([6]; 15 µM) was 0.998 and the viability ([7]; 0.024 µM) was 0.893. It also gave a viability ([7]; 0.12 µM) of 0.926, a viability ([7]; 0.6 µM) of 0.948 and a viability ([7]; 3 µM) of 0.937. For the same compound, the viability ([7]; 15 µM) was 1.03, the viability ([8]; 0.024 µM) was 0.967 and the viability ([8]; 0.12 µM) was 0.981. For the same compound, the viability ([8]; 0.6 µM) was 0.913, the viability ([8]; 3 µM) was 0.897 and the viability ([8]; 15 µM) was 0.521. It also gave a viability ([9]; 0.024 µM) of 0.914, a viability ([9]; 0.12 µM) of 0.914 and a viability ([9]; 0.6 µM) of 0.802. For the same compound, the viability ([9]; 3 µM) was 0.571, the viability ([9]; 15 µM) was 0.0548 and the viability ([10]; 0.024 µM) was 1.01. It also gave a viability ([10]; 0.12 µM) of 1.02, a viability ([10]; 0.6 µM) of 0.983 and a viability ([10]; 3 µM) of 0.99. For the same compound, the viability ([10]; 15 µM) was 0.436, the viability ([11]; 0.024 µM) was 0.883 and the viability ([11]; 0.12 µM) was 0.921. It also gave a viability ([11]; 0.6 µM) of 0.879, a viability ([11]; 3 µM) of 0.85 and a viability ([11]; 15 µM) of 0.644. It also gave a viability ([12]; 0.024 µM) of 0.917, a viability ([12]; 0.12 µM) of 0.932 and a viability ([12]; 0.6 µM) of 0.997. For the same compound, the viability ([12]; 3 µM) was 0.989, the viability ([12]; 15 µM) was 0.79 and the viability ([14]; 0.024 µM) was 1.07. The viability ([14]; 0.12 µM) was 0.99, the viability ([14]; 0.6 µM) was 0.818 and the viability ([14]; 3 µM) was 0.873. For the same compound, the viability ([14]; 15 µM) was 0.191, the viability ([15]; 0.024 µM) was 0.913 and the viability ([15]; 0.12 µM) was 0.88. It also gave a viability ([15]; 0.6 µM) of 0.742, a viability ([15]; 3 µM) of 0.582 and a viability ([15]; 15 µM) of 0.128. The viability ([16]; 0.024 µM) was 0.995, the viability ([16]; 0.12 µM) was 1.02 and the viability ([16]; 0.6 µM) was 0.846. It also gave a viability ([16]; 3 µM) of 0.908, a viability ([16]; 15 µM) of 0.595 and a viability ([17]; 0.024 µM) of 0.244. It also gave a viability ([17]; 0.12 µM) of 0.291, a viability ([17]; 0.6 µM) of 0.291 and a viability ([17]; 3 µM) of 0.316. The viability ([17]; 15 µM) was 0.158, the viability ([18]; 0.024 µM) was 1.1 and the viability ([18]; 0.12 µM) was 1.13. The viability ([18]; 0.6 µM) was 1.04, the viability ([18]; 3 µM) was 1.03 and the viability ([18]; 15 µM) was 0.73. The viability ([19]; 0.024 µM) was 0.839, the viability ([19]; 0.12 µM) was 0.917 and the viability ([19]; 0.6 µM) was 0.971. The viability ([19]; 3 µM) was 0.961 and the viability ([19]; 15 µM) was 0.623.
